# In paper PMC6248945, “Antibacterial properties of the pituitary adenylate cyclase-activating polypeptide: A new human antimicrobial peptide” (PLoS ONE, 2018):
# Where two headings read alike, the source gives them in different places. Where a SMILES comes first, the peptide text is derived from it.
# What was measured:
# [1] = test system: Burkholderia cenocepacia (LMG18829); settings: LMG18829, 20 h
# [2] = test system: Escherichia coli (O157 :H7); settings: CLSI microdilution, MHB, 37 °C, 20h, OD read-out; at least triplicate
# Escherichia coli (JM109) = test: MIC, CLSI microdilution; type: cell-based; settings: MHB, 37 °C, 20h, OD read-out, at least triplicate
# Protocol: Assays were performed according to the CLSI microdilution method. Briefly, the bacterial strains were inoculated and allowed to reach an OD600 of 0.08–0.13 prior to dilution to 10^6 CFU/mL in Mueller-Hinton broth (MHB). A bacterial suspension (50 μL) was then added to each well of a 96-well microplate containing serially diluted peptide solutions (50 μL in MHB) and incubated at 37 °C for 20h. A well containing sterilized medium was used as a sterility control and another well containing no added peptide served as a growth control.
# [3] = test system: Pseudomonas aeruginosa (PA14); settings: PA14, 20 h
# Bacillus velezensis = settings: 20 h
# [4] = test system: Burkholderia cenocepacia (J2315); settings: 20 h
# Bacillus subtilis (PY79) = settings: PY79, 20 h
# [5] = test system: Burkholderia thailendensis (ATCC700388); settings: CLSI microdilution, MHB, 37 °C, 20h, OD read-out; at least triplicate
# [6] = test system: Pseudomonas aeruginosa (ATCC33350-Sero-2); settings: ATCC33350, 20 h
# [7] = test system: Actinobacillus pleuropneumoniae (4074); settings: 20 h
# [8] = test system: Staphylococcus aureus (ATCC6538#P); settings: ATCC6538, 20 h
# Red blood cells = test: Haemolytic activity; type: cell-based; settings: human red blood cells in PBS, 30 min or 3h, 37°C; at 45 μg/mL (PACAP38) or 37 μg/mL (PACAP(9–38)); absorbance 545 nm; 3 independent experiments in triplicate
# Protocol: All experimental procedures were performed in accordance with regulations and ethical guidelines and approved by the institutional committee of the Institut National de la Recherche Scientifique-Institut Armand-Frappier. Blood from healthy human volunteers was collected into sodium citrate-buffered vacutainers. Blood donations were obtained from informed and consenting individuals according to institutionally approved procedures. Red blood cells were pelleted (700 x g; 10 min), washed three times with 9 volumes of PBS by centrifugation (700 x g; 10 min), and then resuspended in PBS. […] PBS-incubated red blood cells were considered as negative control and maximum lysis of erythrocytes was obtained by incubating the cells with 0.1% (v/v) Triton X-100. At the end of the incubation period, cells were pelleted (700 x g, 10 min) and 100 μL of each supernatant was used to evaluate the release of hemoglobin by measuring the absorbance at 545 nm. Results were obtained from 3 independent experiments performed in triplicate.
# [9] = test system: Escherichia coli ATCC25922; settings: ATCC25922, 20 h
# [10] = test system: Serratia marcescens (ATCC14756); settings: ATCC14756, 20 h
# [11] = test system: Burkholderia cenocepacia (CEP0511 Gvar3b); settings: CLSI microdilution, MHB, 37 °C, 20h, OD read-out; at least triplicate
# [12] = test system: Bacillus cereus (ATCC11778); settings: ATCC11778, 20 h
# [13] = test system: Bacillus amyloliquefaciens (LMG22478); settings: LMG22478, 20 h
# Bacillus subtilis (2597) = settings: 2597, 20 h
# [14] = test system: Staphylococcus aureus (Newman); settings: 20 h
# [15] = test system: Bacillus circulans (LSPQ3543); settings: 20 h
# [16] = test system: Pseudomonas fluorescens (MF37); settings: 20 h
# [17] = test system: Pseudomonas putida (KT2440)
# [18] = test system: Burkholderia cenocepacia (LMG19240); settings: CLSI microdilution, MHB, 37 °C, 20h, OD read-out; at least triplicate
# [19] = test system: Burkholderia cenocepacia (K56-2); settings: 20 h
# [20] = relative to PACAP38; cited from earlier work
# DPP-IV = test system: DPP-IV; set-up: method as in PMID 18353507; settings: cited from earlier work
SMILES,"MIC, Burkholderia cenocepacia (LMG18829) [1] [µg/mL]","MIC, Escherichia coli (O157 :H7) [2] [µg/mL]","MIC, Escherichia coli (JM109) (Escherichia coli (JM109)) [µg/mL]","MIC, Pseudomonas aeruginosa (PA14) [3] [µg/mL]","MIC, Bacillus velezensis (Bacillus velezensis) [µg/mL]","MIC, Burkholderia cenocepacia (J2315) [4] [µg/mL]","MIC, Bacillus subtilis (PY79) (Bacillus subtilis (PY79)) [µg/mL]","MIC, Burkholderia thailendensis (ATCC700388) [5] [µg/mL]","MIC, Pseudomonas aeruginosa (ATCC33350-Sero-2) [6] [µg/mL]","MIC, Actinobacillus pleuropneumoniae [7] [µg/mL]","MIC, Staphylococcus aureus (ATCC6538#P) [8] [µg/mL]","MIC, Escherichia coli ATCC25922 [9] [µg/mL]","MIC, Serratia marcescens (ATCC14756) [10] [µg/mL]","MIC, Burkholderia cenocepacia (CEP0511 Gvar3b) [11] [µg/mL]","MIC, Bacillus cereus (ATCC11778) [12] [µg/mL]","MIC, Bacillus amyloliquefaciens [13] [µg/mL]","MIC, Bacillus subtilis (2597) (Bacillus subtilis (2597)) [µg/mL]","MIC, Staphylococcus aureus (Newman) [14] [µg/mL]","MIC, Bacillus circulans (LSPQ3543) [15] [µg/mL]","MIC, Pseudomonas fluorescens (MF37) [16] [µg/mL]",other results
"CC[C@H](C)[C@H](NC(=O)CNC(=O)[C@H](CC(=O)O)NC(=O)[C@H](CO)NC(=O)[C@@H](N)Cc1cnc[nH]1)C(=O)N[C@@H](Cc1ccccc1)C(=O)N[C@H](C(=O)N[C@@H](CC(=O)O)C(=O)N[C@@H](CO)C(=O)N[C@@H](Cc1ccc(O)cc1)C(=O)N[C@@H](CO)C(=O)N[C@@H](CCCNC(=N)N)C(=O)N[C@@H](Cc1ccc(O)cc1)C(=O)N[C@@H](CCCNC(=N)N)C(=O)N[C@@H](CCCCN)C(=O)N[C@@H](CCC(N)=O)C(=O)N[C@@H](CCSC)C(=O)N[C@@H](C)C(=O)N[C@H](C(=O)N[C@@H](CCCCN)C(=O)N[C@@H](CCCCN)C(=O)N[C@@H](Cc1ccc(O)cc1)C(=O)N[C@@H](CC(C)C)C(=O)N[C@@H](C)C(=O)N[C@@H](C)C(=O)N[C@H](C(=O)N[C@@H](CC(C)C)C(=O)NCC(=O)N[C@@H](CCCCN)C(=O)N[C@@H](CCCNC(=N)N)C(=O)N[C@@H](Cc1ccc(O)cc1)C(=O)N[C@@H](CCCCN)C(=O)N[C@@H](CCC(N)=O)C(=O)N[C@@H](CCCNC(=N)N)C(=O)N[C@H](C(=O)N[C@@H](CCCCN)C(=O)N[C@@H](CC(N)=O)C(=O)N[C@@H](CCCCN)C(N)=O)C(C)C)C(C)C)C(C)C)[C@@H](C)O [compound 1, PACAP38]",>200,>200,>200,>200,76,10,28,>200,>200,7.5,>200,>200,>200,>200,>200,42,>200,>200,94,>200,"Haemolytic activity (Red blood cells): do not exert a very significant haemolytic activity; MIC, Pseudomonas putida (KT2440) ([17]; 20 h): 113 µg/mL; MIC, Burkholderia cenocepacia (LMG19240) [18]: >200 µg/mL; MIC, Burkholderia cenocepacia (K56-2) [19]: >200 µg/mL"
"CC[C@H](C)[C@H](NC(=O)CNC(=O)[C@H](CC(=O)O)NC(=O)[C@H](CO)NC(=O)[C@@H](N)Cc1c[nH]cn1)C(=O)N[C@@H](Cc1ccccc1)C(=O)N[C@H](C(=O)N[C@@H](CC(=O)O)C(=O)N[C@@H](CO)C(=O)N[C@@H](Cc1ccc(O)cc1)C(=O)N[C@@H](CO)C(=O)N[C@@H](CCCNC(=N)N)C(=O)N[C@@H](Cc1ccc(O)cc1)C(=O)N[C@@H](C)C(=O)N[C@@H](CCCCN)C(=O)N[C@@H](CCC(N)=O)C(=O)N[C@@H](CCSC)C(=O)N[C@@H](C)C(=O)N[C@H](C(=O)N[C@@H](C)C(=O)N[C@@H](CCCCN)C(=O)N[C@@H](Cc1ccc(O)cc1)C(=O)N[C@@H](CC(C)C)C(=O)N[C@@H](C)C(=O)N[C@@H](C)C(=O)N[C@H](C(=O)N[C@@H](CC(C)C)C(=O)NCC(=O)N[C@@H](CCCCN)C(=O)N[C@@H](CCCNC(=N)N)C(=O)N[C@@H](Cc1ccc(O)cc1)C(=O)N[C@@H](CCCCN)C(=O)N[C@@H](CCC(N)=O)C(=O)N[C@@H](CCCNC(=N)N)C(=O)N[C@H](C(=O)N[C@@H](CCCCN)C(=O)N[C@@H](CC(N)=O)C(=O)N[C@@H](CCCCN)C(N)=O)C(C)C)C(C)C)C(C)C)[C@@H](C)O [compound 6, [Ala^14,20]PACAP38] (H-HSDGIFTDSYSRYAKQMAVAKYLAAVLGKRYKQRVKNK-NH2)",>200,113,37,>200,52,8,3.5,>200,>200,>200,>200,>200,>200,>200,>200,9,187,>200,94,>200,"Metabolic stability in human plasma [20]: improved metabolic stability; Metabolic stability against DPP-IV (DPP-IV): improved metabolic stability; MIC, Pseudomonas putida (KT2440) ([17]; CLSI microdilution, MHB, 37 °C, 20h, OD read-out, at least triplicate): 113 µg/mL; MIC, Burkholderia cenocepacia (LMG19240) [18]: >200 µg/mL; MIC, Burkholderia cenocepacia (K56-2) [19]: >200 µg/mL"
